Source: publication PMC7377239, “Cardiovascular Effects of Polychlorinated Biphenyls and Their Major Metabolites” (Environmental Health Perspectives, 2020)
Where two headings read alike, the source gives them in different places.

Test system: iCell cardiomyocytes (human iPSC-derived cardiomyocytes)
Experiment: Intracellular Ca2+ flux / beating parameters in iCell cardiomyocytes (FLIPR tetra), 90 min or 24 h
Type: cell-based
Details: Homo sapiens, Cardiomyocyte, 0.00 µM = 100.00; for activity at 0.1 µM: 0.10 µM
Procedure: Details on cardiomyocyte cell culture are described in detail elsewhere ([Grimm et al. 2015b]; [Sirenko et al. 2013a]). Briefly, tissue-culture treated 384 well plates were gelatinized with 25μL per well of 0.1% (w/v) gelatin in water for 2 h at 37°C and 5% CO2 . Individual vials of cells were thawed for 4 min in a water bath maintained at 37°C. Thawed cells were resuspended in 10ml plating medium containing 1:500 (vol/vol) penicillin/streptomycin solution at room temperature (RT). Live cell counts for each cell suspension were determined by trypan blue staining and cells were further diluted to provide final cell densities of 2×10^5 viable cells/ml. Thus, 5,000 cells suspended in 25μL media were transferred per well after the gelatin solution had been discarded. Cell culture plates were rested for 30 min at RT before they were incubated for 48 h at 37°C and 5% CO2 . Then, a media exchange with 30μL of fresh maintenance medium containing 1:500 (vol/vol) penicillin/streptomycin solution was performed, and cell media were subsequently changed every 48 h for 12 d. On the experiment day, the medium was completely exchanged with either 25μL (for Ca^2+ flux assay) or 40μL (for imaging) of fresh medium.
Responses of iCell®-cardiomyocytes to drugs and chemicals were evaluated using intracellular Ca^2+ flux measurements ([Grimm et al. 2015b]; [Sirenko et al. 2013b]). For experiments, 20 mM stock solutions of PCBs and PCB metabolites were prepared in DMSO ( 200× ). Chemical working solutions ( 5× ) were prepared using cardiomyocyte maintenance medium and contained 2.5% (vol/vol) DMSO. These chemical master plates were prepared to include all chemicals in concentration–response (0.05, 0.5, 5, 50, and 500μM ). Negative controls included media-only and vehicle control (i.e., 0.5% vol/vol DMSO in cell culture media) wells. Positive assay controls were consistent with previously published reports ([Grimm et al. 2018]) and included TAB ( 50μM ) as a cytotoxic control, and isoproterenol ( 0.1–10μM ), propranolol ( 0.1–5 μM ), cisapride ( 0.01–1μM ), and doxorubicin ( 0.1–5μM ) as chemicals associated with specific effects on beating and ion flux. Each test chemical was screened in triplicate for each concentration.
Experiments started with the addition of 25μL of prewarmed 2× concentrated calcium dye reagent to sample wells containing 25μL maintenance media. Microplates were then acclimated for 2 h at 37°C. Following equilibration, cardiomyocyte sample wells were treated simultaneously by the addition of 12.5μL of prewarmed 5× chemical solution to iCell®-cardiomyocytes using the automated liquid handler in the FLIPR tetra (Molecular Devices). Treated cell cultures were incubated for either 90 min or 24 h. After the conclusion of the treatment period, the Ca^2+ flux was measured for 100 s at a frequency of 8 Hz using the integrated fluorescence plate reader in the FLIPR tetra (Molecular Devices) using an emission wavelength range of λemission=515–575 nm ( λexcitation=470–495 nm ). Additional instrument settings included exposure time per read of 0.05s, a gain of 2000, an excitation intensity of 30%, and an internal temperature of 37°C.
Ca^2+ flux data were processed in R studio (version 1.0.136, with R version 3.3.2; R Development Core Team) as described elsewhere ([Blanchette et al. 2019]; [Burnett et al. 2019]). Calculated quantitative metrics included the means and coefficients of variation (CV) of the peak height, which can be indicative of cytotoxicity, inhibition, or stimulation of beating. Means of peak frequency, an indicator of positive or negative […], and CV of peak spacing, an indicator of irregular beating, were also derived from Ca^2+ flux traces. Finally, the mean ratio of the decay over rise time was calculated. Increases in the decay/rise time ratio are reflective of delayed repolarization and are a measure for QT prolongation. […]

[1] = 1.5 h, 90min, read-out: cm.amp.avg.90min
[2] = 1.5 h, 90min, read-out: cm.amp.cv.90min
[3] = 1.5 h, 90min, read-out: cm.bpm.90min
[4] = 1.5 h, 90min, read-out: cm.decay.rise.90min
[5] = 1.5 h, 90min, read-out: cm.spacing.cv.90min
[6] = 24 h, 24hrs, read-out: cm.amp.avg.24hrs
[7] = 24 h, 24hrs, read-out: cm.amp.cv.24hrs
[8] = 24 h, 24hrs, read-out: cm.bpm.24hrs
[9] = 24 h, 24hrs, read-out: cm.decay.rise.24hrs
[10] = 24 h, 24hrs, read-out: cm.spacing.cv.24hrs

Q: `COc1cc(Cl)c(-c2cc(Cl)ccc2Cl)cc1Cl` [4-OMe PCB52] was tested. Which activity at 0.01 µM [1] did it give?
A: 106%

Q: And the activity at 0.01 µM [2]?
A: 122%

Q: And the activity at 0.01 µM [3]?
A: 97.8%

Q: And the activity at 0.01 µM [4]?
A: 97.5%

Q: And the activity at 0.01 µM [5]?
A: 105%

Q: What about the activity at 0.1 µM [1] of the same compound?
A: 106%

Q: And the activity at 0.1 µM [2]?
A: 92.7%

Q: And the activity at 0.1 µM [3]?
A: 102%

Q: And the activity at 0.1 µM [4]?
A: 99.6%

Q: And the activity at 0.1 µM [5]?
A: 88%

Q: And the activity at 1 µM [1]?
A: 107%

Q: What about the activity at 1 µM [2] of the same compound?
A: 113%

Q: And the activity at 1 µM [3]?
A: 100%

Q: What about the activity at 1 µM [4] of the same compound?
A: 97%

Q: And the activity at 1 µM [5]?
A: 94.3%

Q: What about the activity at 10 µM [1] of the same compound?
A: 83.3%

Q: What about the activity at 10 µM [2] of the same compound?
A: 119%

Q: What about the activity at 10 µM [3] of the same compound?
A: 120%

Q: And the activity at 10 µM [4]?
A: 91.9%

Q: And the activity at 10 µM [5]?
A: 108%

Q: And the activity at 100 µM [1]?
A: 0%

Q: What about the activity at 100 µM [2] of the same compound?
A: 0%

Q: What about the activity at 100 µM [3] of the same compound?
A: 0%

Q: And the activity at 100 µM [4]?
A: 0%

Q: What about the activity at 100 µM [5] of the same compound?
A: 0%

Q: What about the activity at 0.01 µM [6] of the same compound?
A: 89%

Q: And the activity at 0.01 µM [7]?
A: 35.4%

Q: What about the activity at 0.01 µM [8] of the same compound?
A: 54.4%

Q: And the activity at 0.01 µM [9]?
A: 45.5%

Q: And the activity at 0.01 µM [10]?
A: 56.2%

Q: What about the activity at 0.1 µM [6] of the same compound?
A: 164%

Q: And the activity at 0.1 µM [7]?
A: 69.5%

Q: What about the activity at 0.1 µM [8] of the same compound?
A: 109%

Q: And the activity at 0.1 µM [9]?
A: 100%

Q: What about the activity at 0.1 µM [10] of the same compound?
A: 108%

Q: What about the activity at 1 µM [6] of the same compound?
A: 166%

Q: What about the activity at 1 µM [7] of the same compound?
A: 70.7%

Q: And the activity at 1 µM [8]?
A: 95.5%

Q: What about the activity at 1 µM [9] of the same compound?
A: 109%

Q: What about the activity at 1 µM [10] of the same compound?
A: 102%

Q: And the activity at 10 µM [6]?
A: 138%

Q: What about the activity at 10 µM [7] of the same compound?
A: 81.2%

Q: What about the activity at 10 µM [8] of the same compound?
A: 104%

Q: And the activity at 10 µM [9]?
A: 107%

Q: What about the activity at 10 µM [10] of the same compound?
A: 102%

Q: And the activity at 100 µM [6]?
A: 0%

Q: And the activity at 100 µM [7]?
A: 0%

Q: And the activity at 100 µM [8]?
A: 0%

Q: And the activity at 100 µM [9]?
A: 0%

Q: And the activity at 100 µM [10]?
A: 0%
